The results in this text go back to ChEMBL document CHEMBL6134853, “Design, Synthesis, and Biological Evaluation of Pyrrolo[1,2-a]quinoxalin-4(5H)-one Derivatives as Potent and Orally Available Noncovalent Bruton's Tyrosine Kinase (BTK) Inhibitors” (J Med Chem, 2025).

A short description of data set [1]: Cmax in male Sprague-Dawley rat at 10 mg/kg, po measured up to 5 hrs by LC-MS/MS analysis. Type of data set: ADME, organism-based. To be noted: in vivo.
For data set [2], the target named is Tyrosine-protein kinase BTK (Homo sapiens, UniProt Q06187). Kind of data set: Inhibition of BTK phosphorylation at Y223 residue in anti-IgM induced human U-937 cells preincubated with compound for 4 hrs followed by anti-IgM induction and measured after 15 mins by Western blot analysis. The class given is cell-based. To be noted: dose <= 1.0 µM, time 255.0 min. In general terms: Immunoblotting shows a protein as a band on a membrane.

The target of data set [3] is T1, 1-phosphatidylinositol 4,5-bisphosphate phosphodiesterase gamma-2 (Homo sapiens) (UniProt P16885).
T1 sequence (whole entry): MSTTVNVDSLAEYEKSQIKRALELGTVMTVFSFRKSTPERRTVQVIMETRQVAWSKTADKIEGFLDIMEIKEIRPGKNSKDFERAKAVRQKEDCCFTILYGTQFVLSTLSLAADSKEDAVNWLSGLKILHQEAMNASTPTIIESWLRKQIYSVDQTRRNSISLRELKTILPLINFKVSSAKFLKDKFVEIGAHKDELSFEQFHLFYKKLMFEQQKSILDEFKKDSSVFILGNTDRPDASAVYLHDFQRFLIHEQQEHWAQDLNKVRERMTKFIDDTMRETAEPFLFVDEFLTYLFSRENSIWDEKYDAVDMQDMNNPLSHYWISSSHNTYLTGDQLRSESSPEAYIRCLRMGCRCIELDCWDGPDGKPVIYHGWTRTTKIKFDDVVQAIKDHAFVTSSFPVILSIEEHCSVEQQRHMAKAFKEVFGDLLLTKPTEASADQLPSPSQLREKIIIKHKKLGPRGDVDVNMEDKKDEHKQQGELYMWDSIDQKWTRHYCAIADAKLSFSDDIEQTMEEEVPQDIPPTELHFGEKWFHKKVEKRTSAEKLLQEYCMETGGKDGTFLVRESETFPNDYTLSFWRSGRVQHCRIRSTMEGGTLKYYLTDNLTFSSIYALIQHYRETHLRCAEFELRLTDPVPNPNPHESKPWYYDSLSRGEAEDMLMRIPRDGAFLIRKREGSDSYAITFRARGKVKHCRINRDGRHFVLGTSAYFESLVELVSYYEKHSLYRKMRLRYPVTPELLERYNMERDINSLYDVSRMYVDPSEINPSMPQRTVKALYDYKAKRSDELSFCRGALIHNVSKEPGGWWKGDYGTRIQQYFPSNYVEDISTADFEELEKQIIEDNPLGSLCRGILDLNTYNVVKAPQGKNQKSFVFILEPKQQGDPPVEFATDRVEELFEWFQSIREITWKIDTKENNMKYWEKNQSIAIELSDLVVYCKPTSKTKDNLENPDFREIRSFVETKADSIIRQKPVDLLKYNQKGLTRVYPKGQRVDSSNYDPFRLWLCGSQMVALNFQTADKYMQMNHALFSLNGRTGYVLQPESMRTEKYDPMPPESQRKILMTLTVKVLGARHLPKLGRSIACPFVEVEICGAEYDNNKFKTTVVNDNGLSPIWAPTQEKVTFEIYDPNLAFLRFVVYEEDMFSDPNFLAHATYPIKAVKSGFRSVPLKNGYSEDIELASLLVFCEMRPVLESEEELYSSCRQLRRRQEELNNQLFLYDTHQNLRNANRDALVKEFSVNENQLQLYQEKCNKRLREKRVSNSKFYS
As to the kind of experiment: Inhibition of PLCgamma2 phosphorylation at Y1217 residue in anti-IgM induced human Ramos cells preincubated with compound for 4 hrs followed by anti-IgM induction and measured after 15 mins by Western blot analysis. Type of data set: cell-based. To be noted: dose <= 1.0 µM, time […].

In data set [4] the test system is U-937. As to the kind of experiment: Induction of apoptosis in human U-937 cells incubated for 2 days by Annexin V/PI staining based flow cytometry analysis. The class given is functional, cell-based. To be noted: dose 1-10 µM, time 2.0 day.
The subject of data set [5] is U-937. Kind of data set: Antitumor activity against human U-937 cells xenografted in po dosed BALB/c mouse assessed as tumor growth inhibition administered once a day for 14 days. To be noted: dose 50-100 mg/kg, time 14.0 day. Type of data set: functional, organism-based. A general note: Xenograft models place foreign cells or tissue in a host animal.
The test system of data set [6] is U-937. Kind of data set: Antitumor activity against human U-937 cells xenografted in BALB/c mouse assessed as reduction in Ki67 expression in tumor at 50 mg/kg, po administered once a day for 14 days by immunohistochemical analysis. Type of data set: functional, organism-based. To be noted: time 14.0 day.
Data set [7] is described as follows: Toxicity in BALB/c mouse xenografted with human U-937 cells assessed as inflammatory infiltration in heart at 50 to 100 mg/kg, po administered once a day for 14 days by H and E staining based analysis. The class given is organism-based. To be noted: in vivo, 336 h, dose 50-100 mg/kg, time 14 day.
The nature of data set [8]: Toxicity in BALB/c mouse xenografted with human U-937 cells assessed as inflammatory infiltration in spleen at 50 to 100 mg/kg, po administered once a day for 14 days by H and E staining based analysis. To be noted: in vivo, 336 h, dose 50-100 mg/kg, time 14 day. Type of data set: organism-based.
Data set [9] can be described thus: Toxicity in BALB/c mouse xenografted with human U-937 cells assessed as inflammatory infiltration in kidney at 50 to 100 mg/kg, po administered once a day for 14 days by H and E staining based analysis. Type of data set: organism-based. To be noted: in vivo, 336 h, dose 50-100 mg/kg, time 14 day.

Calls of active or inactive are those of the source. No cut-off for these calls is given here.

Broadly, the Cmax is the highest concentration seen after dosing.

Chain of Tyrosine-protein kinase BTK (Q06187 whole entry): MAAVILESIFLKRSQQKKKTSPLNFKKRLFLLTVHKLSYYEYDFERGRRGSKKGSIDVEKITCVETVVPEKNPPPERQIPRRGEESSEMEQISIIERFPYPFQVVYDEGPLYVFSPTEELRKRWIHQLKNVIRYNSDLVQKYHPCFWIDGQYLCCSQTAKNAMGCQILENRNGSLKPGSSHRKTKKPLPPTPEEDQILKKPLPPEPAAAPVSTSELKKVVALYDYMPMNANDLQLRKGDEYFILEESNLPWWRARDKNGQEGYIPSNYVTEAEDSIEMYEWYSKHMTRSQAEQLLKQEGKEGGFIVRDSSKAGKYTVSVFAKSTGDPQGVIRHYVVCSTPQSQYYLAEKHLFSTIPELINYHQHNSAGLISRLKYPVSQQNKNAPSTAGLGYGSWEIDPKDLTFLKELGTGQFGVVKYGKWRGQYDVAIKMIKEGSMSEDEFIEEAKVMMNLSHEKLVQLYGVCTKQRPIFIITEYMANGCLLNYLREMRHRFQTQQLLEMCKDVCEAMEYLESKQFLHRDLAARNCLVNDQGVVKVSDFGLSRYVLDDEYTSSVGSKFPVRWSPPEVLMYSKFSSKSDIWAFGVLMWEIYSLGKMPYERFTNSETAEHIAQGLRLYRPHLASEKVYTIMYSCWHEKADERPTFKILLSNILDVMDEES

Take `CC(C)(O)c1ccc2c(c1)[nH]c(=O)c1ccc(-c3cccc(-n4c(=O)[nH]c5c(F)cccc5c4=O)c3F)n12`: in [1], the Cmax amounted to 62.4 ng/mL. Also, the inhibition entry in data set [2] and in [3] was “Dose-dependent-effect” in each case. Besides, the Activity result with U-937 [4] is “Dose-dependent-effect”; in the data set on U-937 [5], “Dose-dependent-effect”; in data set [7], “Non-toxic”; in data set [8], “Non-toxic”; in data set [9], “Non-toxic”. Also, the outcome with U-937 [6] was Active.
